ChEMBL document CHEMBL3045759, “Synthesis of a New 1, 2, 4-Oxadiazol-5-one Derivative, KC10017, and Its Controlling Activity against Rice Blast Disease Caused by Magnaporthe grisea” (J Pestic Sci, 2002)
Calls of active or inactive are those of the source. No cut-off for these calls is given here.

Assays:
Pyricularia grisea [1] = assay: microbe, parasite or virus in culture; format: functional; details: P-2
Pyricularia grisea [2] = assay: microbe, parasite or virus in culture; format: functional; details: P-2; remark: listed apart in the source
Pyricularia grisea [3] = assay: microbe, parasite or virus in culture; format: functional; details: P-2; remark: listed apart in the source
Pyricularia grisea [4] = assay: microbe, parasite or virus in culture; format: functional; details: P-2; remark: listed apart in the source
Botrytis cinerea = assay: Fungicidal activity against Botryotinia fuckeliana assessed as control of cucumber gray mold disease at 50 ug/ml; format: functional, organism-based
Puccinia triticina = assay: Fungicidal activity against Puccinia triticina assessed as control of wheat leaf rust disease at 50 ug/ml; format: functional, organism-based
Phytophthora infestans = assay: Fungicidal activity against Phytophthora infestans assessed as control of tomato late blight disease at 50 ug/ml; format: functional, organism-based
Pyricularia grisea [5] = assay: Inhibition of mycelial growth of Magnaporthe grisea P-2 assessed as mycelial dry weight at 0.1 to 100 ug/ml at 25 degC; format: functional, organism-based
Pyricularia grisea [6] = assay: Fungicidal activity against Magnaporthe grisea P-2 in rice plant assessed as control of rice blast disease at 100 ug/ml measured after 14 days of treatment at 26 +/- 2 degC measured afterr 5 days; format: functional, organism-based
[7] = Lipophilicity, log P of the compound; format: physicochemical; details: octanol/water
Pyricularia grisea [8] = assay: Fungicidal activity against Magnaporthe grisea P-2 in rice plant assessed as control of rice blast disease at 0.5 ug/ml at 26 +/- 2 degC measured after 5 days; format: functional, organism-based
Rhizoctonia solani = assay: Fungicidal activity against Rhizoctonia solani assessed as control of rice sheath blight disease at 50 ug/ml; format: functional, organism-based
Blumeria hordei = assay: Fungicidal activity against Blumeria graminis f. sp. hordei assessed as control of barley powdery mildew at 50 ug/ml; format: functional, organism-based
Pyricularia grisea [9] = assay: Fungicidal activity against Magnaporthe grisea P-2 in rice plant assessed as control of rice blast disease at 50 ug/ml; format: functional, organism-based

Compound: Cc1cccc2sc3nncn3c12 [TRICYCLAZOLE]
- inhibition at 10 µg/mL (Pyricularia grisea [1]): 7.2%
- inhibition at 1 µg/mL (Pyricularia grisea [2]): 3.8%
- inhibition at 10 µg/mL (Pyricularia grisea [3]): 0%
- inhibition at 1 µg/mL (Pyricularia grisea [4]): 0%

Compound: Cc1cccc(NC(=O)Cn2c(COc3c(C)cc(Br)cc3C)noc2=O)c1
- Activity (Botrytis cinerea): inactive
- Activity (Puccinia triticina): inactive
- Activity (Phytophthora infestans): inactive
- inhibition at 10 µg/mL (Pyricularia grisea [1]): 0%
- inhibition at 1 µg/mL (Pyricularia grisea [2]): 2.9%
- inhibition (Pyricularia grisea [5]): inactive
- Activity (Pyricularia grisea [6]): Active
- logP [7]: 6.01
- Activity (Pyricularia grisea [8]): Active
- inhibition at 10 µg/mL (Pyricularia grisea [3]): 0%
- Activity (Rhizoctonia solani): inactive
- inhibition at 1 µg/mL (Pyricularia grisea [4]): 0%
- Activity (Blumeria hordei): inactive
- Activity (Pyricularia grisea [9]): Active

Compound: CN(CC[C@H](N)CC(=O)N[C@H]1C=C[C@H](n2ccc(N)nc2=O)O[C@@H]1C(=O)O)C(=N)N [BLASTICIDIN_S]
- inhibition at 10 µg/mL (Pyricularia grisea [1]): 100%
- inhibition at 1 µg/mL (Pyricularia grisea [2]): 76.6%
- inhibition at 1 µg/mL (Pyricularia grisea [4]): 25.2%

Compound: CCOP(=O)(Sc1ccccc1)Sc1ccccc1 [EDIFENPHOS]
- inhibition at 10 µg/mL (Pyricularia grisea [1]): 100%
- inhibition at 1 µg/mL (Pyricularia grisea [2]): 76.4%
- inhibition at 1 µg/mL (Pyricularia grisea [4]): 44.8%
